Columns and labels:
[1] = at room temperature; cited from earlier work
[2] = particle size of crystallized bulk aripiprazole; assay type: physicochemical

For O=C1CCc2ccc(OCCCCN3CCN(c4cccc(Cl)c4Cl)CC3)cc2N1 [Aripiprazole, aripiprazole], the aqueous solubility [1] is given as < 1 µg/mL, the “particle size (95% of particles)” value ([2]; Example 1: impinging jet crystallization with sonication, 2° C. water anti-solvent) is given as < 100 microns and the “particle size (95% of particles)” value ([2]; Example 2: impinging jet crystallization without sonication, 30° C. water anti-solvent) is given as < 100 microns. The particle size ([2]; batch crystallization (comparison)) was 100 microns.
